One assay relates to A375 cells. The assay is described as follows: A375 proliferation crystal violet (CV) assay. The format is cell-based. Particulars: Homo sapiens, A-375, 96 h, crystal violet staining, 4 days. As for the experimental part:
Alternatively, the cell proliferation was measured by crystal violet (CV) staining: Assay 7
Cultivated human A375 cells were plated out in a density of 1500 cells/measurement point in 200 μl of growth medium (DMEM/HAMS F12 (Biochrom; FG4815) with 10% FBS and 2 mM Glutamine) in a 96-well multititer plate. After 24 hours, the cells from a plate (zero plate) were stained with crystal violet (see below), while the medium in the other plates was replaced by fresh culture medium (200 μl) to which the test substances had been added in various concentrations (0 μM, and in the range 0.3 nM-30 μM; the final concentration of the solvent dimethyl sulphoxide was 0.5%). The cells were incubated in the presence of the test substances for 4 days. The cell proliferation was determined by staining the cells with crystal violet: the cells were fixed by adding 20 μl/measurement point of an 11% glutaraldehyde solution at room temperature for 15 min. After the fixed cells had been washed three times with water, the plates were dried at room temperature. The cells were stained by adding 100 μl/measurement point of a 0.1% crystal violet solution (pH adjusted to pH 3 by adding acetic acid). After the stained cells had been washed three times with water, the plates were dried at room temperature. The dye was dissolved by adding 100 μl/measurement point of a 10% acetic acid solution, and the extinction was determined by photometry at a wavelength of 595 nm. The percentage change in cell growth was calculated by normalizing the measurements to the extinctions of the zero point plate (=0%) and the extinction of the untreated (0 μM) cells (=100%). The IC50 values were determined by means of a 4-parameter fit using the company's own software.

The next assay concerns MEK1/2. Particulars: background statement, ref. [17]; cited from earlier work.
The subject of the next assay is colon cancer. Particulars: oral treatment, mouse models, ref. [18]; cited from earlier work.
For the next assay, the target named is T1, MEK1 (Homo sapiens, UniProt Q02750).
T1 construct: purchased Millipore 14-420
Kind of assay: MEK1 activation kinase assay (Cot1, HTRF). Particulars: inhibition of Cot1-mediated activation of GST-MEK1, HTRF. Format: biochemical. From the text: The kinase Cot1 activates MEK1 by phosphorylating its activation loop. The inhibitory activity of compounds of the present invention on this activation of MEK1 was quantified employing the HTRF assay described in the following paragraphs.
N-terminally His6-tagged recombinant kinase domain of the human Cot1 (amino acids 30-397, purchased from Millipore, cat. no 14-703) expressed in insect cells (SF21) and purified by Ni-NTA affinity chromatography was used as kinase. As substrate for the kinase reaction the unactive C-terminally His6-tagged GST-MEK1 fusion protein (Millipore cat. no 14-420) was used.
For the assay 50 nl of a 100 fold concentrated solution of the test compound in DMSO was pipetted into a black low volume 384 well microtiter plate (Greiner Bio-One, Frickenhausen, Germany), 3 μl of a solution of 24 nM GST-MEK1 and 166.7 μM adenosine-tri-phosphate (ATP) in assay buffer [50 mM Tris/HCl pH 7.5, 10 mM MgCl2, 2 mM dithiothreitol, 0.01% (v/v) Igepal CA 630 (Sigma), 5 mM β-phospho-glycerol] were added and the mixture was incubated for 10 min at 22° C. to allow pre-binding of the test compounds to the GST-MEK1 before the start of the kinase reaction. Then the kinase reaction was started by the addition of 2 μl of a solution of Cot1 in assay buffer and the resulting mixture was incubated for a reaction time of 20 min at 22° C. […]
The resulting mixture was incubated 2 h at 22° C. to allow the binding of the phosphorylated GST-MEK1 to the anti-GST-XL665 and the Eu-cryptate labelled anti-phospho-MEK 1/2 antibody. Subsequently the amount of Ser217/Ser221-phosphorylated substrate was evaluated by measurement of the resonance energy transfer from the Eu-Cryptate-labelled anti-phospho-MEK antibody to the anti-GST-XL665. Therefore, the fluorescence emissions at 620 nm and 665 nm after excitation at 350 nm was measured in a HTRF reader, e.g. a Rubystar (BMG Labtechnologies, Offenburg, Germany) or a Viewlux (Perkin-Elmer). […]
For orientation: In TR-FRET formats the signal depends on donor and acceptor labels being close together.

Where [1] appears, read: currently preferred example compounds.

SMILES strings stand for the structures.

Data on 11 molecules can be found in patent publication US20110237592A1, “SUBSTITUTED AMIDO PHENOXYBENZAMIDES” (BAYER SCHERING PHARMA AKTIENGESELLSCHAFT, priority 2008, published 2011).

T1 sequence (Q02750 whole entry): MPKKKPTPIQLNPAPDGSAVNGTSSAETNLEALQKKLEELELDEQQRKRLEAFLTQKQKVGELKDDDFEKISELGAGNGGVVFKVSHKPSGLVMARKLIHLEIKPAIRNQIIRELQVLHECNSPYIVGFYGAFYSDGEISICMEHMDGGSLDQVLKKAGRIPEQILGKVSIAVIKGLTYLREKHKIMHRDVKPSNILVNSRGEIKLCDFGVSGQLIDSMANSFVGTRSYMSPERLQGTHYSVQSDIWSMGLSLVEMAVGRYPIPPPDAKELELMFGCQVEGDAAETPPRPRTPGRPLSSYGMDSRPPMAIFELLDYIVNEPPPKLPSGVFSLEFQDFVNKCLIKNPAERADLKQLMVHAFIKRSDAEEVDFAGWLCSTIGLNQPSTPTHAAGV

Turning to `COCC(=O)Nc1cccc(Oc2cc(F)cc(Nc3ccc(I)cc3F)c2C(N)=O)c1` [Example 3.2, 4-Fluoro-2-(2-fluoro-4-iodo-phenylamino)-6-[3-(2-methoxy-acetylamino)-phenoxy]-benzamide], the IC50 (in general, the concentration that inhibits the measured activity by half) in the assay on A375 cells (setting [1]) is below 100 nM.

`CSCC(=O)Nc1cccc(Oc2cc(F)cc(Nc3ccc(I)cc3F)c2C(N)=O)c1` [Example 3.3, 4-Fluoro-2-(2-fluoro-4-iodo-phenylamino)-6-[3-(2-methylsulfanyl-acetylamino)-phenoxy]-benzamide] had an IC50 in the assay with A375 cells (setting [1]) below 100 nM.

As for `CC(O)C(=O)Nc1cccc(Oc2cc(F)cc(Nc3ccc(I)cc3F)c2C(N)=O)c1` (stereo not drawn) [Example 3.6, 4-Fluoro-2-(2-fluoro-4-iodo-phenylamino)-6-[3-(2-hydroxy-propionylamino)-phenoxy]-benzamide], the IC50 with A375 cells (setting [1]) was below 100 nM.

Consider `O=C(NOCC1CC1)c1ccc(F)c(F)c1Nc1ccc(I)cc1Cl` [CI-1040], for which the IC50 result with MEK1/2 is listed as “low nanomolar range”. In addition, the “colon cancer growth in vivo” value in the assay on colon cancer is on record as “inhibit colon cancer growth in vivo”.

`CN1CCC(C(=O)Nc2cccc(Oc3cc(F)cc(Nc4ccc(I)cc4F)c3C(N)=O)c2)CC1` [Example 3.17, 1-Methyl-piperidine-4-carboxylic acid {3-[2-carbamoyl-5-fluoro-3-(2-fluoro-4-iodo-phenylamino)-phenoxy]-phenyl}-amide]: the IC50 at MEK1 was below 100 nM.

In the assay with A375 cells (setting [1]), `NC(=O)c1c(Nc2ccc(I)cc2F)cc(F)cc1Oc1cccc(NC(=O)CO)c1` [Example 3.1, 4-Fluoro-2-(2-fluoro-4-iodo-phenylamino)-6-[3-(2-hydroxy-acetylamino)-phenoxy]-benzamide] showed an IC50 below 100 nM.

In the case of `NC(=O)c1c(Nc2ccc(I)cc2F)cc(F)cc1Oc1cccc(NC(=O)C2CCOCC2)c1` [Example 3.5, Tetrahydro-pyran-4-carboxylic acid {3-[2-carbamoyl-5-fluoro-3-(2-fluoro-4-iodo-phenylamino)-phenoxy]-phenyl}-amide], in the assay with A375 cells (setting [1]), the IC50 was below 100 nM.

For the molecule `NC(=O)c1c(Nc2ccc(I)cc2F)cc(F)cc1Oc1ccc2oc(=O)[nH]c2c1` [Example 4.1, 4-Fluoro-2-(2-fluoro-4-iodo-phenylamino)-6-(2-oxo-2,3-dihydro-benzooxazol-5-yloxy)-benzamide], the IC50 against MEK1 and in the assay on A375 cells (setting [1]) was below 100 nM each time.

On to `CC(C)(O)C(=O)Nc1cccc(Oc2cc(F)cc(Nc3ccc(I)cc3F)c2C(N)=O)c1` [Example 1.1, 4-Fluoro-2-(2-fluoro-4-iodo-phenylamino)-6-[3-(2-hydroxy-2-methylpropionylamino)-phenoxy]-benzamide], for which the IC50 is below 100 nM at MEK1, below 1000 nM with A375 cells and below 100 nM with A375 cells (setting [1]).

`NC(=O)c1c(Nc2ccc(I)cc2F)cc(F)cc1Oc1cccc(NC(=O)C(F)(F)F)c1` [Example 5.1, 4-Fluoro-2-(2-fluoro-4-iodo-phenylamino)-6-[3-(2,2,2-trifluoro-acetylamino)-phenoxy]-benzamide] returned an IC50 in the assay on A375 cells below 1000 nM.

Molecule `NC(=O)c1c(Nc2ccc(I)cc2F)cc(F)cc1Oc1cccc(NC(=O)CN2CCOCC2)c1` [Example 3.7, 4-Fluoro-2-(2-fluoro-4-iodo-phenylamino)-6-[3-(2-morpholin-4-yl-acetylamino)-phenoxy]-benzamide] displayed an IC50 with A375 cells (setting [1]) below 100 nM.
